pIC50: −log10 of the molar value. Entries after “also recorded” stand apart in the source; their conditions may differ. Read-outs that look alike come from different tables or passages of the source.

In one series the target is PKA Non-selective. As to the kind of experiment: Ser/Thr kinase assay by MDS Pharma Services (Panlabs). In kind it is biochemical.
For a further series, the system named is PI4K. As to the kind of experiment: PI4 kinase assay, immunoprecipitated from platelet lysate. Type of series: biochemical. The protocol: For each immunoprecipitation, 1 mg of lysate was incubated with an anti-p110α (1 μg), anti-p110β (1 μg), anti-p110δ (1 μg) or anti-PI4 kinase antibody (2-5 μg) and 50 μl of a 50% slurry of protein A beads overnight at 4° C. […] For PI4 kinase assays, protein A beads-immune complexes were also washed twice with lysis buffer, prior to two washes with 1× PI4 kinase assay buffer (20 mM Hepes, pH 7.5, 10 mM MgCl2, 0.3% Triton X-100) and the addition of other assay constituents, as described above. All reactions were terminated by the addition of 100 μl 1 M HCl, 200 μl choloroform/methanol (1:1) and 500 μl 2 M KCl and lipids extracted by centrifugation at 15,000×g for 2 minutes. The production of PI3 or PI4 kinase lipid products, PtdIns(3)P and PtdIns(4)P, were confirmed through TLC analysis. The lipid spots were then removed from the TLC plate and the level of radioactivity quantified to accurately determine the level of PtdIns(3)P/PtdIns(4)P production.

The target of the next series is EGF Receptor (Homo sapiens, UniProt P00533). As to the kind of experiment: Tyrosine kinase assay by MDS Pharma Services (Panlabs). Type of series: biochemical.
Sequence of EGF Receptor (P00533 25-1210): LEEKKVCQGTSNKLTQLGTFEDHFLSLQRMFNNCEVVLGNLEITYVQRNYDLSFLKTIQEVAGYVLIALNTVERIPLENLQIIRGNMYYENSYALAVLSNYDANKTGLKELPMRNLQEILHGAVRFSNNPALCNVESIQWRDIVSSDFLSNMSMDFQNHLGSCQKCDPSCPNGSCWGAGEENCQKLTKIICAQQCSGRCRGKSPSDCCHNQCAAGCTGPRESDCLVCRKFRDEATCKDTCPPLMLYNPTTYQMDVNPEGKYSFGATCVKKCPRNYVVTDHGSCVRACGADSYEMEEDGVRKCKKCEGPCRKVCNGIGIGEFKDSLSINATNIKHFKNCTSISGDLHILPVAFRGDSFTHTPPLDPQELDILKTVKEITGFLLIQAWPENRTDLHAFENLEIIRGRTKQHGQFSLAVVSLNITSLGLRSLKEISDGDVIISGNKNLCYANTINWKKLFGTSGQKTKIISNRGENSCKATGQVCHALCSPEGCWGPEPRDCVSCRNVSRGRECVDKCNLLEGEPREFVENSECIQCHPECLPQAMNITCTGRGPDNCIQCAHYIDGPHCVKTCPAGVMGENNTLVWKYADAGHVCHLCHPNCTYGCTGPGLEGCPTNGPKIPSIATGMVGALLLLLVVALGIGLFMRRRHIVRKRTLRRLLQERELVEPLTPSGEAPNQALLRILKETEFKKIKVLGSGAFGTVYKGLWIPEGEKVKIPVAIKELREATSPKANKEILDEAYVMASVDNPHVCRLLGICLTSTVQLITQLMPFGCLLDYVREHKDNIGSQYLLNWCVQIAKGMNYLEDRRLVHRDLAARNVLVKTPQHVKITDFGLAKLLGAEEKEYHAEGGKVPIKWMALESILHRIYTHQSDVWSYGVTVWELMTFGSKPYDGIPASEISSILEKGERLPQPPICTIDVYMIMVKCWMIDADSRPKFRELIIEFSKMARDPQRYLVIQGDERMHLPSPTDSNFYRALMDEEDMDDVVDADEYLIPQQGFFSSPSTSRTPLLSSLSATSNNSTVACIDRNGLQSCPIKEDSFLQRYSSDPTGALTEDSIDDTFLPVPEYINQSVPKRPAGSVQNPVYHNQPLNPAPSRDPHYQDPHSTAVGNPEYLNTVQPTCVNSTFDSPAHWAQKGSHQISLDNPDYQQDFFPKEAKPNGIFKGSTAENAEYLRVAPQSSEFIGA
The target in another series is p110γ-PI3K (Homo sapiens, UniProt P48736). As to the kind of experiment: In vitro enzyme assay, p110γ recombinant protein (Biological Example 1). Type of series: biochemical. The text has this: Reactions were terminated and lipid products analysed as described above for the other PI 3-kinase isoforms assays.
Sequence of p110γ-PI3K (P48736 whole entry, canonical isoform): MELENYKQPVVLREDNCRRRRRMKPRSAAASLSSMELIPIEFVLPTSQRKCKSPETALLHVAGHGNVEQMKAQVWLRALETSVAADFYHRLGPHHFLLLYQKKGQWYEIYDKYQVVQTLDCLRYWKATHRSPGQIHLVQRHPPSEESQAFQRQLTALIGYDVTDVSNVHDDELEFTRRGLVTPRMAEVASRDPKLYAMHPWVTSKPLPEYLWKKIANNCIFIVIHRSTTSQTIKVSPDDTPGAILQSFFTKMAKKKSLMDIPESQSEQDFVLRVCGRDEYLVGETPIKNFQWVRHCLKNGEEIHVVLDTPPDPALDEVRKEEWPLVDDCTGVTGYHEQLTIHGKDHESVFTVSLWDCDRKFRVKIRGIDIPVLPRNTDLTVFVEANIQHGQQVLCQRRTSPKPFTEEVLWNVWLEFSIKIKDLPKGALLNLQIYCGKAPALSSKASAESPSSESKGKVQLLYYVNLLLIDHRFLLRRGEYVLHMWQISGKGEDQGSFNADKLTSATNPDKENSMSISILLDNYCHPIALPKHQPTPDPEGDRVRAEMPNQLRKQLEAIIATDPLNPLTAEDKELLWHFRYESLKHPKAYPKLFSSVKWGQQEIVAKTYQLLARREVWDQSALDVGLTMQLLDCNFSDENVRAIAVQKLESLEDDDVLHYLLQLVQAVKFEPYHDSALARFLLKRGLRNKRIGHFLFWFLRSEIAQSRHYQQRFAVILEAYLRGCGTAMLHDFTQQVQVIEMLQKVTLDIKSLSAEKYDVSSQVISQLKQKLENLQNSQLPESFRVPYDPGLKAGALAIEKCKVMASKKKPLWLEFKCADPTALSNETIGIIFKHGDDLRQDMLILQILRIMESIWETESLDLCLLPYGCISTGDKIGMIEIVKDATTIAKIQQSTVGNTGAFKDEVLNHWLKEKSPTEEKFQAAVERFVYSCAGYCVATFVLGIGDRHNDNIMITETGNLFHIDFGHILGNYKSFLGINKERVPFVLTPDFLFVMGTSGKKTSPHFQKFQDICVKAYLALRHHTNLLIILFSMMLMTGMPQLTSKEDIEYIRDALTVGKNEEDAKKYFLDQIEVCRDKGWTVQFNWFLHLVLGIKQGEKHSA
The next series concerns the target PKC Non-selective. As to the kind of experiment: Ser/Thr kinase assay by MDS Pharma Services (Panlabs). In kind it is biochemical.
For a further series, the target named is Ab1 (Homo sapiens, UniProt P00519). As to the kind of experiment: Tyrosine kinase assay by MDS Pharma Services (Panlabs). In kind it is biochemical.
Sequence of Ab1 (P00519 whole entry): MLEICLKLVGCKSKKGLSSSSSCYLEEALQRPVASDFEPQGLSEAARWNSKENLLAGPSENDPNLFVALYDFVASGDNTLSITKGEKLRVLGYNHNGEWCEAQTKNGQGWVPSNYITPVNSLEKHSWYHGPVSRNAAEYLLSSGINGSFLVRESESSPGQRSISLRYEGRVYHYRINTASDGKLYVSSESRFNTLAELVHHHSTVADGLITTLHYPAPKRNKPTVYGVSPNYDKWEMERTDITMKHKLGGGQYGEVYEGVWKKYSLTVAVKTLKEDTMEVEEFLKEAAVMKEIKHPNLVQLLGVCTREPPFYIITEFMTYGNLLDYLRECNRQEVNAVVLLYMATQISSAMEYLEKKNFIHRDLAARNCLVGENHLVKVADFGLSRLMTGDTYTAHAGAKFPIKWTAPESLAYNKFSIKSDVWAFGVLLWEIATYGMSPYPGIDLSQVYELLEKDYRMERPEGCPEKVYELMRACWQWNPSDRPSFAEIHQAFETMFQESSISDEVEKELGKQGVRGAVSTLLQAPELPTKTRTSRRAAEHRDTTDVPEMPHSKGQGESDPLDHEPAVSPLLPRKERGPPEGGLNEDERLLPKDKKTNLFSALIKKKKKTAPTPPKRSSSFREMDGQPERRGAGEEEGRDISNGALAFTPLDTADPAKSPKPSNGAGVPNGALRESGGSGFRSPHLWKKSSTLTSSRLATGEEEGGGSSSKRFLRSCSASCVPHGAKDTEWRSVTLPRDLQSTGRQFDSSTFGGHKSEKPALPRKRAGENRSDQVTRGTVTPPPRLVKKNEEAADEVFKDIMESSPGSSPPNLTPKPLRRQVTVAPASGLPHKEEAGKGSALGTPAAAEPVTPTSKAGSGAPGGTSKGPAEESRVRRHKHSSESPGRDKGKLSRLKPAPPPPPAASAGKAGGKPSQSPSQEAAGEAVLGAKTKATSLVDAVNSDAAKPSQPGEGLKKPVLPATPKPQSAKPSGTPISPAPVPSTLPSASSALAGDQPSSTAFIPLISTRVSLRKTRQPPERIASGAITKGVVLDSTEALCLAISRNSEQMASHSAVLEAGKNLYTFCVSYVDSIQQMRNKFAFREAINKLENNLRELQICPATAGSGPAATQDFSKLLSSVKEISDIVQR
Series [1] concerns carotid artery occlusive thrombus formation in rats. Nature of the series: Electrolytic injury carotid model in rats. Type of series: in vivo. The protocol:
Treatments were given as an i.v. bolus at time−9 min (i.e. 5 min before applying the current). Error bars are average SEM from repeated-measures ANOVA. […] Error bars are ±1 SEM. Distal to the left carotid artery flow probe, a piece of Parafilm was inserted under the vessel for electrical isolation. The artery was placed onto a hook-shaped platinum electrode, after which, it was clamped distally to the electrode to occlude blood flow and a current of 7 mA was delivered for 4 min using a constant current unit (Model CCU1, Grass Instruments, Quincy, Mass., USA) connected to a Grass SD9 stimulator. The artery clamp was released immediately after this 4 min period. Blood flow was monitored for 60 min after the end of the stimulation. Thrombosis formation was defined by blood flow falling to zero.

Series [2] has the same test system. As to the kind of experiment: Modified Folts model in rats. Type of series: in vivo, Sprague-Dawley rats. Here is the method:
Studies were approved by the University of Melbourne Animal Ethics Committee in accordance with the guidelines of the National Health & Medical Research Council of Australia. Anaesthesia was induced in Sprague-Dawley rats (260-400 g) with sodium pentobarbitone (Nembutal; 60 mg/kg i.p.; Merial Australia Pty. Ltd., Sydney, NSW, Australia), and in New Zealand White rabbits (2-3 kg) with pentobarbitone (15 mg/kg i.v.) and fentanyl (6 μg/kg i.v.; David Bull Laboratories, Mulgrave, VIC, Australia). Animals were mechanically ventilated (Ugo Basile ventilator, Comerio, VA, Italy) with room air supplemented with O2. Body temperature was maintained throughout the experiment. Arterial blood pressure was measured via a femoral artery catheter connected to a pressure transducer (Model 1050.1, AD Instruments, Sydney, NSW) and a blood flow probe (1 mm i.d. for rats & 2.5 mm i.d. for rabbits; flowmeter […], Transonic Systems Inc., Ithaca, N.Y., USA) was placed around each (control and test) carotid artery; all parameters were recorded on a PowerLab data acquisition system (8SP; AD Instruments). A silk suture was tied loosely around 1 artery, distal to the flow probe, for subsequent stenosis. […] Carotid blood flow was monitored until it reached 0 ml/min, indicating a clot had formed at the site of stenosis. […] Again, carotid blood flow was monitored until it reached 0 ml/min, and the time recorded. […]

The test system of a further series is washed platelets. Nature of the series: FACS analysis of integrin αIIbβ3 activation and P-selectin expression. In kind it is cell-based. The conditions noted are these: induced by thrombin, collagen and ADP; 0.5 μM TGX-221. Here is the method: Agonists: Thrombin, 1 U/ml; ADP, […]; U46619, 1 μM; Soluble collagen 10 μg/ml.
Platelets were then stimulated with thrombin (1 U/ml), ADP ([…]), U46619 (1 μM) or collagen (10 μg/ml) for 20 min at room temperature prior to being fixed with 2% paraformaldehyde for 45 min at room temperature. Fixed platelets were washed twice with Tyrode's buffer, incubated with 1 μg/ml FITC-conjugated anti-mouse F(ab)2′ antibody for 15 min at room temperature, washed twice with Tyrode's buffer, resuspended to a final volume of 500 μl in Tyrode's buffer and analyzed by FACS.

Another series has as its target Insulin Receptor (Homo sapiens, UniProt P06213). As to the kind of experiment: Tyrosine kinase assay by MDS Pharma Services (Panlabs). Type of series: biochemical.
The target in the next series is HER2 Receptor (Homo sapiens, UniProt P04626). The description is as above. Type of series: biochemical.
Sequence of HER2 Receptor (P04626 23-1255): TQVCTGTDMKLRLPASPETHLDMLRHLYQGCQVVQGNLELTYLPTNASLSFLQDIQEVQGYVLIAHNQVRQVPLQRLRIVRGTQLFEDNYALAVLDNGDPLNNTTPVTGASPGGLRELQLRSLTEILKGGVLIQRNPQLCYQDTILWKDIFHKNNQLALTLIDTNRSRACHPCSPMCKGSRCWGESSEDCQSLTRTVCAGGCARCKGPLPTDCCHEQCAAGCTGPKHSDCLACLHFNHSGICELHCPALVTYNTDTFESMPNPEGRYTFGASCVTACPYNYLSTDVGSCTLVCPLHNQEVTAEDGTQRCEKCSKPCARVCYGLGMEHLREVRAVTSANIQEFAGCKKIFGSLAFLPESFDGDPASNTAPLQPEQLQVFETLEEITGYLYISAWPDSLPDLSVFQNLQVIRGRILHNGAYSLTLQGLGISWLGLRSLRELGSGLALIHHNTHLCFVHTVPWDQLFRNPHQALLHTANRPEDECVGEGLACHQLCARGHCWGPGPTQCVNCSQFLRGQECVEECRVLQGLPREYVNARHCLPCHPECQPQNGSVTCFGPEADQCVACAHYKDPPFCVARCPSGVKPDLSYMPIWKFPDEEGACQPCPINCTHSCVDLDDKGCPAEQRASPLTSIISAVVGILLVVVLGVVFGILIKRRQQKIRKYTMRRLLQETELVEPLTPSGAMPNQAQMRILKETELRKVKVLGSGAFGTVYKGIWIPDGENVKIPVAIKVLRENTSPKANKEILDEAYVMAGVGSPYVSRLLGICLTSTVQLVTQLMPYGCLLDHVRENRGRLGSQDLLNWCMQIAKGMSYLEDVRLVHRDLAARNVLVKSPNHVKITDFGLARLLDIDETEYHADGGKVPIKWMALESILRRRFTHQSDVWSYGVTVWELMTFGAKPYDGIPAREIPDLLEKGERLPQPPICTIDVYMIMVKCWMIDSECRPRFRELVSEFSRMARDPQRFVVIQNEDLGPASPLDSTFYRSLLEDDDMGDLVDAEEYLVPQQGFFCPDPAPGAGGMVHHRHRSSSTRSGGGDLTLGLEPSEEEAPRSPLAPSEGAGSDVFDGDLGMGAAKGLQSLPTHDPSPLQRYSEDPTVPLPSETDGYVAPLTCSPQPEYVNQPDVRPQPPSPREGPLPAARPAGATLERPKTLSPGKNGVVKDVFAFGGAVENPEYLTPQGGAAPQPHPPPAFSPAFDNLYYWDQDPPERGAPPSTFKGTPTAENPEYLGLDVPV
The target of the next series is ERK1 (Homo sapiens, UniProt P27361). Nature of the series: Ser/Thr kinase assay by MDS Pharma Services (Panlabs). In kind it is biochemical.
Sequence of ERK1 (P27361 whole entry, species assumed): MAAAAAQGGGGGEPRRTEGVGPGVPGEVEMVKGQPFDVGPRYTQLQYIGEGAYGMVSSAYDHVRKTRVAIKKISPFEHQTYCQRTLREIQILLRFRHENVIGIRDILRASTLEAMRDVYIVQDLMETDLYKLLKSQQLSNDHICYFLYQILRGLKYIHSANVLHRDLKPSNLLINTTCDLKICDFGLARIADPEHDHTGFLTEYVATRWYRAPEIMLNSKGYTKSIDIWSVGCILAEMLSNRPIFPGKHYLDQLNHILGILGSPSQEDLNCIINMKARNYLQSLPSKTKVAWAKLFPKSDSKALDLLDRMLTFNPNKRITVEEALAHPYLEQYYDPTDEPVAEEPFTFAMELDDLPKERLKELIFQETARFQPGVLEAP
Another series addresses Cdk2/cyclin A (Homo sapiens, UniProt P24941). The description is as above. Type of series: biochemical.

With `Cc1cc(C(C)Nc2ccccc2)c2nc(N3CCOCC3)cc(=O)n2c1` (racemic) [TGX-221, (±)-7-methyl-2-morpholin-4-yl-9-(1-phenylaminoethyl)-pyrido[1,2-a]pyrimidin-4-one], the IC50 at PKA Non-selective was over 10 µM; with PI4K, over 10 µM; against EGF Receptor it was over 10 µM; on p110γ-PI3K (read-out: IC50 (μM), p110γ-PI3K) it was over 10 µM; on PKC Non-selective, over 10 µM; against Ab1, over 10 µM. Besides, the concentration for half-maximal inhibition (IC50) on Insulin Receptor, against HER2 Receptor, on ERK1 and against Cdk2/cyclin A was over 10 µM throughout. Moreover, the “inhibitory effect on PI4 kinase” value with PI4K (in words) is “minimal inhibitory effect”. The pIC50 on p110γ-PI3K (Table I, read-out: inhibitory concentration, gamma) was under 5.30. For the same compound, in [1] (both the Folts and electrolytic studies), the “baseline arterial blood pressure, heart rate or carotid artery blood flow” value is “no effect”. Moreover, the occlusive thrombus formation result in series [1] (rats, 2 mg/kg in PG 5 minutes before injury, in words, 90% occlusion rate in vehicle-treated rats) is “completely prevented”; in series [2] (2 mg/kg, in words), “completely prevented”. Besides, the “carotid blood flow volume over the 60 min post-injury period” value in [1] (rats, 2 mg/kg, in words) is on record as “preserving; also recorded: preserved”. The “animals in which occlusive thrombus formation was immediately abolished” value in [2] (2 mg/kg i.v. bolus) was determined as 100%. Moreover, in the series with washed platelets, the “integrin αIIbβ3 activation (PAC-1 binding)” value is “unaffected”.

One may read the IC50 as the concentration that inhibits the measured activity by half.

The record behind these values is US7598377B2, “Inhibition of phosphoinositide 3-kinase β” (AstraZeneca AB, priority 2002, dated 2009).
